Measurements as given in publication PMC4189701 (Drug Design, Development and Therapy, 2014).
Where “and” joins values, the source holds several entries; their conditions need not be identical. Identical values can stand only once. Entries after “also recorded” stand apart in the source; their conditions may differ.

Tests used:
[1] = tested on: laboratory strains and clinical HIV-1 isolates; conditions: preclinical; ref unpublished data; cited from earlier work
[2] = Pharmacokinetics over single- and multiple-dose studies together; type: in vivo, human
CYP3A = CYP3A enzyme activity; type: in vitro ADME; conditions: primary human hepatocytes
Multiple-dose = type: in vivo, human; conditions: for steady state attained: RM-ANOVA of predose concentrations; for Accumulation index: AUC144–168h/AUC0–24h; for Accumulation index / AUCτ,ss/dose / CL/F / Cmax,ss/dose / fe: mean ± SD; for fe: unchanged in urine
[3] = Single-dose pharmacokinetics in healthy subjects; type: in vivo, human; conditions: for AUC(0-inf) / AUC(0-t) / Cmax / Tmax / half-life: human, plasma, oral; for AUC∞/dose / Cmax/dose / fe / CL/F: mean ± SD; for fe: unchanged in urine
CYP3A4 mRNA = CYP3A4 mRNA content in primary human hepatocytes; type: in vitro ADME; conditions: human
[4] = tested on: CYP3A4 messenger ribonucleic acid (mRNA); experiment: CYP3A4 mRNA content in primary human hepatocytes; type: in vitro ADME; conditions: summary in words
[5] = Tolerability over the whole study; type: in vivo, human
[6] = mice and dogs; preclinical studies; cited from earlier work
Tolerability [7] = type: in vivo, human
[8] = tested on: cytochrome P450 (CYP)-3A4; conditions: human hepatocytes; ref unpublished data; cited from earlier work
K103N = conditions: major efavirenz-resistant mutation; ref unpublished data; cited from earlier work
Tolerability [9] = type: in vivo, human; conditions: single dose
[10] = 75–600 mg, single or multiple doses

CCn1c(C(=O)c2cc(C)cc(C#N)c2)c(C(C)C)c(=O)[nH]c1=O [KM-023, 3-[3-ethyl-5-isopropyl-2,6-dioxo-1,2,3,6-tetrahydro-pyrimidine-4-carbonyl]-5-methyl benzonitrile]
antiviral activity [1]: low-nanomolar range | dose proportionality of Cmax and AUC [2, 10]: Dose proportionality was not observed; also recorded: less than dose-proportional nonlinear pharmacokinetics | pharmacokinetic characteristics (linearity) [2, 10]: dose- and time-dependent nonlinear pharmacokinetic characteristics; also recorded: dose-and time-dependent nonlinear pharmacokinetics; also recorded: dose- and time-dependent nonlinear pharmacokinetic profiles | fe ([2]; all dose levels, unchanged drug in urine): less than 1% | fold induction at 0.3 µM (CYP3A; human, probe testosterone): 1.9 | fold induction at 3 µM (CYP3A; human, probe testosterone): 5 | fold induction at 30 µM (CYP3A; human, probe testosterone): 8.8 | CYP3A enzyme activation (CYP3A; summary in words): exhibited a potential for CYP3A enzyme activation | steady state attained (Multiple-dose; 75 mg once daily): > 4 days | accumulation after multiple doses (Multiple-dose; 600 mg dose group): 0.6 fold | steady state attained (Multiple-dose; 150–600 mg once daily): > 6 days | Accumulation index (Multiple-dose; multiple doses 75 mg): 1.1±0.2 | AUCτ,ss/dose (Multiple-dose; multiple doses 75 mg): 49.3 ± 13.4 ng·mL·h/mg | CL/F (Multiple-dose; multiple doses 75 mg): 21.5 ± 5.4 L/h | Cmax,ss/dose (Multiple-dose; multiple doses 75 mg): 5.1 ± 1.7 ng/mL/mg | fe (Multiple-dose; multiple doses 75 mg): 0.52±0.40% | Accumulation index (Multiple-dose; multiple doses 150 mg): 1.1±0.5 | AUCτ,ss/dose (Multiple-dose; multiple doses 150 mg): 55.0 ± 27.1 ng·mL·h/mg | CL/F (Multiple-dose; multiple doses 150 mg): 22.3 ± 10.2 L/h | Cmax,ss/dose (Multiple-dose; multiple doses 150 mg): 4.9 ± 1.7 ng/mL/mg | fe (Multiple-dose; multiple doses 150 mg): 0.75±0.52% | Accumulation index (Multiple-dose; multiple doses 300 mg): 0.9±0.2 | AUCτ,ss/dose (Multiple-dose; multiple doses 300 mg): 22.7 ± 6.3 ng·mL·h/mg | CL/F (Multiple-dose; multiple doses 300 mg): 48.0 ± 17.6 L/h | Cmax,ss/dose (Multiple-dose; multiple doses 300 mg): 2.4 ± 0.6 ng/mL/mg | fe (Multiple-dose; multiple doses 300 mg): 0.28±0.15% | Accumulation index (Multiple-dose; multiple doses 600 mg): 0.6 and 0.6±0.1 | AUCτ,ss/dose (Multiple-dose; multiple doses 600 mg): 17.1 ± 9.5 ng·mL·h/mg | CL/F (Multiple-dose; multiple doses 600 mg): 71.9 ± 28.1 L/h | Cmax,ss/dose (Multiple-dose; multiple doses 600 mg): 1.8 ± 0.8 ng/mL/mg | fe (Multiple-dose; multiple doses 600 mg): 0.18±0.12% | AUC(0-inf) ([3]; 75 mg): 11100 ng·h/mL | AUC(0-t) ([3]; 75 mg): 8740 ng·h/mL | Cmax ([3]; 75 mg): 440 ± 68.3 ng/mL | Tmax ([3]; 75 mg): 2 h | half-life ([3]; 75 mg): 29.3 ± 12.5 h | AUC(0-inf) ([3]; 150 mg): 14100 ng·h/mL | AUC(0-t) ([3]; 150 mg): 11200 ng·h/mL | Cmax ([3]; 150 mg): 621 ± 105 ng/mL | Tmax ([3]; 150 mg): 2 h | half-life ([3]; 150 mg): 29.5 ± 11.9 h | AUC(0-inf) ([3]; 300 mg): 18100 ng·h/mL | AUC(0-t) ([3]; 300 mg): 14700 ng·h/mL | Cmax ([3]; 300 mg): 832 ± 201 ng/mL | Tmax ([3]; 300 mg): 2 h | half-life ([3]; 300 mg): 31.2 ± 21.1 h | AUC(0-inf) ([3]; 600 mg): 33700 ng·h/mL | AUC(0-t) ([3]; 600 mg): 26800 ng·h/mL | Cmax ([3]; 600 mg): 1250 ng/mL | Tmax ([3]; 600 mg): 3 h | half-life ([3]; 600 mg): 29.7 ± 15.6 h | AUC∞/dose ([3]; single dose 75 mg): 148.6 ± 64.1 ng·mL·h/mg | Cmax/dose ([3]; single dose 75 mg): 5.9 ± 0.9 ng/mL/mg | fe ([3]; single dose 75 mg): 0.94±0.64% | AUC∞/dose ([3]; single dose 150 mg): 94.3 ± 38.2 ng·mL·h/mg | CL/F ([3]; single dose 150 mg): 24.8 ± 5.6 L/h | Cmax/dose ([3]; single dose 150 mg): 4.1 ± 0.7 ng/mL/mg | fe ([3]; single dose 150 mg): 0.65±0.34% | AUC∞/dose ([3]; single dose 300 mg): 60.4 ± 30.5 ng·mL·h/mg | CL/F ([3]; single dose 300 mg): 40.3 ± 12.4 L/h | Cmax/dose ([3]; single dose 300 mg): 2.8 ± 0.7 ng/mL/mg | fe ([3]; single dose 300 mg): 0.52±0.41% | AUC∞/dose ([3]; single dose 600 mg): 56.2 ± 31.1 ng·mL·h/mg | CL/F ([3]; single dose 600 mg): 50.0 ± 21.9 L/h | Cmax/dose ([3]; single dose 600 mg): 2.1 ± 0.7 ng/mL/mg | fe ([3]; single dose 600 mg): 0.25±0.17% | fold induction at 0.3 µM (CYP3A4 mRNA): 2.3 | fold induction at 3 µM (CYP3A4 mRNA): 6.2 | fold induction at 30 µM (CYP3A4 mRNA): 6.2 | CYP3A4 messenger ribonucleic acid induction [4]: CYP3A4 messenger ribonucleic acid induction | epistaxis, occurrences ([5]; both studies, all deemed drug-related): seven | changes from baseline in clinical laboratory test results, vital signs, electrocardiography, computerized impedance cardiography, or physical examinations ([5]; single or multiple doses): no clinically meaningful changes from baseline | serious AEs ([5]; single or multiple doses 75–600 mg): No serious AEs occurred | tolerability ([5]; single or multiple doses 75–600 mg, healthy subjects): generally well tolerated without serious adverse events; also recorded: well tolerated | findings in in vivo safety pharmacology studies [6]: no significant findings | Gastrointestinal disorders, all AEs, number of events (Tolerability [7]; multiple doses): 3 (3) | Gastrointestinal disorders, all AEs, number of subjects (Tolerability [7]; multiple doses): 3 (3) | Gastrointestinal disorders, drug-related AEs, number of events (Tolerability [7]; multiple doses): 3 (3) | Gastrointestinal disorders, drug-related AEs, number of subjects (Tolerability [7]; multiple doses): 3 (3) | Nervous system disorders, all AEs, number of events (Tolerability [7]; multiple doses): 4 (4) | Nervous system disorders, all AEs, number of subjects (Tolerability [7]; multiple doses): 4 (4) | Nervous system disorders, drug-related AEs, number of events (Tolerability [7]; multiple doses): 4 (4) | Nervous system disorders, drug-related AEs, number of subjects (Tolerability [7]; multiple doses): 4 (4) | Oropharyngeal, respiratory, thoracic, and mediastinal disorders, all AEs, number of events (Tolerability [7]; multiple doses): 13 | Oropharyngeal, respiratory, thoracic, and mediastinal disorders, all AEs, number of subjects (Tolerability [7]; multiple doses): 12 | Oropharyngeal, respiratory, thoracic, and mediastinal disorders, drug-related AEs, number of events (Tolerability [7]; multiple doses): 9 | Oropharyngeal, respiratory, thoracic, and mediastinal disorders, drug-related AEs, number of subjects (Tolerability [7]; multiple doses): 8 | Skin and subcutaneous tissue disorders, all AEs, number of events (Tolerability [7]; multiple doses): 4 | Skin and subcutaneous tissue disorders, all AEs, number of subjects (Tolerability [7]; multiple doses): 3 | Skin and subcutaneous tissue disorders, drug-related AEs, number of events (Tolerability [7]; multiple doses): 1 (1) | Skin and subcutaneous tissue disorders, drug-related AEs, number of subjects (Tolerability [7]; multiple doses): 1 (1) | Total, drug-related AEs, number of subjects (Tolerability [7]; multiple doses): 16 | epistaxis, occurrences (Tolerability [7]; multiple-dose study): five | epistaxis, subjects (Tolerability [7]; multiple-dose study): four | CYP3A4 induction [8]: moderately induced | activity against K103N (K103N): showed activity against K103N | General disorder, all AEs, number of events (Tolerability [9]): 2 (2) | General disorder, all AEs, number of subjects (Tolerability [9]): 2 (2) | General disorder, drug-related AEs, number of events (Tolerability [9]): 1 (1) | General disorder, drug-related AEs, number of subjects (Tolerability [9]): 1 (1) | Genitourinary disorders, all AEs, number of events (Tolerability [9]): 1 (1) | Genitourinary disorders, all AEs, number of subjects (Tolerability [9]): 1 (1) | Genitourinary disorders, drug-related AEs, number of events (Tolerability [9]): 1 (1) | Genitourinary disorders, drug-related AEs, number of subjects (Tolerability [9]): 1 (1) | Musculoskeletal disorders, all AEs, number of events (Tolerability [9]): 2 | Musculoskeletal disorders, all AEs, number of subjects (Tolerability [9]): 1 | Musculoskeletal disorders, drug-related AEs, number of events (Tolerability [9]): 2 | Musculoskeletal disorders, drug-related AEs, number of subjects (Tolerability [9]): 1 | Nervous system disorders, all AEs, number of events (Tolerability [9]): 4 (4) | Nervous system disorders, all AEs, number of subjects (Tolerability [9]): 4 (4) | Nervous system disorders, drug-related AEs, number of events (Tolerability [9]): 3 (3) | Nervous system disorders, drug-related AEs, number of subjects (Tolerability [9]): 3 (3) | Ophthalmologic disorders, all AEs, number of events (Tolerability [9]): 1 (1) | Ophthalmologic disorders, all AEs, number of subjects (Tolerability [9]): 1 (1) | Oropharyngeal, respiratory, thoracic, and mediastinal disorders, all AEs, number of events (Tolerability [9]): 7 | Oropharyngeal, respiratory, thoracic, and mediastinal disorders, all AEs, number of subjects (Tolerability [9]): 6 | Oropharyngeal, respiratory, thoracic, and mediastinal disorders, drug-related AEs, number of events (Tolerability [9]): 2 | Oropharyngeal, respiratory, thoracic, and mediastinal disorders, drug-related AEs, number of subjects (Tolerability [9]): 1 | Total, all AEs, number of events (Tolerability [9]): 17

CCC1(c2ccccc2)C(=O)NC(=O)NC1=O [Phenobarbital, reference compound]
fold induction at 1 mM (CYP3A; human, probe testosterone): 9.9 | fold induction at 1 mM (CYP3A4 mRNA): 8.9
